The target in assay [1] is GDP-bound KRAS wild-type protein (Homo sapiens, UniProt P01116). As to the kind of experiment: Binding to KRAS by surface plasmon resonance (SPR), Single Cycle Kinetics. Particulars: SPR, Single Cycle Kinetics, GDP-bound KRAS wild-type protein; read-out: KRAS KD. A general note: Surface plasmon resonance follows binding to a sensor surface in real time, without labels.
The target of assay [2] is GDP-bound NRAS wild-type protein (Homo sapiens, UniProt P01111). As to the kind of experiment: Binding to NRAS by surface plasmon resonance (SPR), Single Cycle Kinetics. Particulars: SPR; for NRAS/KRAS (ratio of KD value for NRAS to KD value for KRAS): GDP-bound NRAS wild-type protein vs GDP-bound KRAS wild-type protein.
Sequence of GDP-bound NRAS wild-type protein (P01111 whole entry): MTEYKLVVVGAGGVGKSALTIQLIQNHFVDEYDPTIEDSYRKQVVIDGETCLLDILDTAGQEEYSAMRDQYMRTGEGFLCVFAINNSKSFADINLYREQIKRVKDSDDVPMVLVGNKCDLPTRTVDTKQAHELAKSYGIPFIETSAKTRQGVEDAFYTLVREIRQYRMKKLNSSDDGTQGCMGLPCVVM
The target of assay [3] is GDP-bound HRAS wild-type protein (Homo sapiens, UniProt P01112). Kind of assay: Binding to HRAS by surface plasmon resonance (SPR), Single Cycle Kinetics. Particulars: SPR; for HRAS/KRAS (ratio of KD value for HRAS to KD value for KRAS): GDP-bound HRAS wild-type protein vs GDP-bound KRAS wild-type protein.
Sequence of GDP-bound HRAS wild-type protein (P01112 whole entry): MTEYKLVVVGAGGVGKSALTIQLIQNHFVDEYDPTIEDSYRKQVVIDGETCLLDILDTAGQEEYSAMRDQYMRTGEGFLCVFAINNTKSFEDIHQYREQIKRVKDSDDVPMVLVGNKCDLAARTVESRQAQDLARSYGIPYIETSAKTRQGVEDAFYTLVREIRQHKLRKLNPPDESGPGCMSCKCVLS
Assay [4] concerns human lung cancer strain NCI-H441.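 Note: cell proliferation inhibition after four days measured by CellTiter-Glo.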

Like-named read-outs stand apart in the source and are kept apart here. Where a SMILES comes first, the peptide text is derived from it. Bridges are numbered along the chain shown (N, C = ends). [ ]: non-standard residue; d: D form. The star is where a group is joined. hPhe(3-Cl-4-CF3) = N[C@@H](CCc1ccc(C(F)(F)F)c(Cl)c1)C(=O)O; NPrPhe(4-CF3) = CCCN[C@@H](Cc1ccc(C(F)(F)F)cc1)C(=O)O; NMeGly(cPent) = CN[C@H](C(=O)O)C1CCCC1; NMeD = CN[C@@H](CC(=O)O)C(=O)O; NMeNva = CCC[C@H](NC)C(=O)O; Morpholide = C1CN(*)CCO1; Ac4c = NC1(C(=O)O)CCC1; NPrGly = CCCNCC(=O)O; Sar = CNCC(=O)O

Sequence of GDP-bound KRAS wild-type protein (P01116 whole entry): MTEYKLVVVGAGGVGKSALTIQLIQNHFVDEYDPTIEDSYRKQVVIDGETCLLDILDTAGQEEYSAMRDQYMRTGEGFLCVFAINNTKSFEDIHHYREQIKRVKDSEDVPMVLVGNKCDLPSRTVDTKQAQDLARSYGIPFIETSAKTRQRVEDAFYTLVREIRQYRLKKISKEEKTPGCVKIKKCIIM

In general, Kd refers to the free concentration of one partner at which half of the binding sites on the other are occupied at equilibrium, for simple one-to-one binding. The term IC50 denotes the midpoint of a concentration-inhibition curve. For `CCC[C@H]1C(=O)N[C@@H]([C@@H](C)CC)C(=O)N(C)CC(=O)N(CCC)CC(=O)N(CCC)[C@@H](Cc2ccc(C(F)(F)F)cc2)C(=O)N(C)CC(=O)N[C@@H](CCc2ccc(C(F)(F)F)c(Cl)c2)C(=O)N2CCC[C@H]2C(=O)NC2(CCC2)C(=O)N(C)[C@@H](C2CCCC2)C(=O)N(C)[C@H](C(=O)N2CCOCC2)CC(=O)N1C` [PP1949] ([NMeNva]I[Sar][NPrGly][NPrPhe(4-CF3)][Sar][hPhe(3-Cl-4-CF3)]P[Ac4c][NMeGly(cPent)][NMeD]-Morpholide; lactam N-11), the Kd in assay [1] was 0.92 nM. Moreover, the “NRAS/KRAS (KD ratio)” value in assay [2] (ratio of KD for GDP-bound NRAS wild-type protein to KD for KRAS) is “C (A compound having a KD ratio of 0.1 or more and less than 3 is denoted as C)”. For the same compound, the “HRAS/KRAS (KD ratio)” value in assay [3] (ratio of KD for GDP-bound HRAS wild-type protein to KD for KRAS) was “C (A compound having a KD ratio of 0.1 or more and less than 3 is denoted as C)”. For the same compound, the IC50 in assay [4] (read-out: NCI-H441 IC50, NCI-H441 cell proliferation, 4 days, CellTiter-Glo) stood at 9.3 nM.

Consider `C#CC[C@H]1C(=O)N[C@@H]([C@@H](C)CC)C(=O)N(C)CC(=O)N(C)[C@H]2C/C=C\CCN(C2=O)[C@@H](Cc2ccc(C(F)(F)F)cc2)C(=O)N(C)CC(=O)N[C@@H](CCc2cc(F)c(C(F)(F)F)c(F)c2)C(=O)N2C[C@@H](C)C[C@H]2C(=O)NC2(CCC2)C(=O)N(C)[C@@H](C2CCCC2)C(=O)N(C)[C@H](C(=O)N(C)CCC)CC(=O)N1C` [PP2077], for which the Kd in assay [1] worked out at 0.12 nM. Moreover, the “NRAS/KRAS (ratio of KD value for NRAS to KD value for KRAS)” value in assay [2] is “A (a compound having 10 or more and less than 20 is denoted as A)”. In addition, the “HRAS/KRAS (ratio of KD value for HRAS to KD value for KRAS)” value in assay [3] is “A (a compound having 10 or more and less than 20 is denoted as A)”. The same compound had an IC50 in assay [4] of 10.9 nM.

Turning to `CC[C@H](C)[C@@H]1NC(=O)[C@H](C(C)C)N(C)C(=O)C[C@@H](C(=O)N(C)CC)N(C)C(=O)[C@H](C2CCCC2)N(C)C(=O)C2(CCC2)NC(=O)[C@@H]2C[C@H](C)CN2C(=O)[C@H](CCc2cc(F)c(C(F)(F)F)c(F)c2)NC(=O)CN(C)C(=O)[C@H](Cc2ccc(C(F)(F)F)cc2)N2CC/C=C\C[C@@H](C2=O)N(C)C(=O)CN(C)C1=O` [PP2078], the Kd in assay [1] was determined as 0.17 nM. In assay [2], the “NRAS/KRAS (ratio of KD value for NRAS to KD value for KRAS)” value is given as “AA (a compound having 20 or more is denoted as AA)”. Further, the “HRAS/KRAS (ratio of KD value for HRAS to KD value for KRAS)” value in assay [3] was “A (a compound having 10 or more and less than 20 is denoted as A)”. For the same compound, in assay [4], the IC50 was 10.3 nM.

Consider `C#CCN1CC(=O)N(C)[C@H]2C/C=C\CCN(C2=O)[C@@H](Cc2ccc(C(F)(F)F)cc2)C(=O)N(C)CC(=O)N[C@@H](CCc2ccc(C(F)(F)F)c(OC)c2)C(=O)N2C[C@H](OCC)C[C@H]2C(=O)NC2(CC(C)(C)C2)C(=O)N(C)[C@@H](C2CCCC2)C(=O)N(C)[C@H](C(=O)N(C)C)CC(=O)N(C)[C@@H](CC)C(=O)N[C@@H]([C@@H](C)CC)C1=O` [PP2091], for which the Kd in assay [1] is 0.18 nM. The “NRAS/KRAS (ratio of KD value for NRAS to KD value for KRAS)” value in assay [2] was “A (a compound having 10 or more and less than 20 is denoted as A)”. In addition, the “HRAS/KRAS (ratio of KD value for HRAS to KD value for KRAS)” value in assay [3] is “B (a compound having 3 or more and less than 10 is denoted as B)”. For the same compound, in assay [4], the IC50 is 4.6 nM.

Take `CCC[C@@H]1C[C@H]2C(=O)NC3(CC(C)(C)C3)C(=O)N(C)[C@@H](C3CCCC3)C(=O)N(C)[C@H](C(=O)N(C)C)CC(=O)N(C)[C@@H](C)C(=O)N[C@@H]([C@@H](C)CC)C(=O)N(C)CC(=O)N(C)[C@H]3C/C=C\CCN(C3=O)[C@@H](Cc3ccc(C(F)(F)F)cc3)C(=O)N(C)CC(=O)N[C@@H](CCc3cc(F)c(C(F)(F)F)c(F)c3)C(=O)N2C1` [PP2273]: in assay [1], the Kd is 0.19 nM. Moreover, the “NRAS/KRAS (ratio of KD value for NRAS to KD value for KRAS)” value in assay [2] is reported as “AA (a compound having 20 or more is denoted as AA)”. The “HRAS/KRAS (ratio of KD value for HRAS to KD value for KRAS)” value in assay [3] was “A (a compound having 10 or more and less than 20 is denoted as A)”. This compound also yielded an IC50 in assay [4] of 1.6 nM.

The values above are taken from patent US20240158446A1, “CYCLIC COMPOUND HAVING SELECTIVE INHIBITORY ACTION ON KRAS OVER HRAS AND NRAS” (CHUGAI SEIYAKU KABUSHIKI KAISHA, priority 2021, published 2024).
